Assay results from patent publication US7202280B2, “Methods for the treatment and prevention of pancreatitis and for induction of liver regeneration” (priority 2002, dated 2007).

System: syngenic and metallothionein-SSAT mice
Assay: Hepatic, pancreatic and renal polyamine concentration in syngenic and metallothionein-SSAT mice after analogue
Format: in vivo, mouse
Conditions: 24 h before sacrifice
Experimental: α-methylspermidine, Bis-α-methylspermine and α-methylspermine were administered in saline. […] The data are expressed as means ±S.D. For statistical analysis, the two-tailed Student's t test was used.

Structure (SMILES): CC(N)CCNCCCCNCCC(C)N (stereo not drawn) [bis-α-methylspermine, 1,12-dimethylspermine]
- hepatic concentration, Bis-α-Methylspermine (Sg (syngenic) mice, 12.5 mg/kg): 159.88 pmoles/mg tissue wet weight
- hepatic polyamine concentration, N^8-Acetylspermidine (Sg (syngenic) mice, 12.5 mg/kg): 0.75 pmoles/mg tissue wet weight
- hepatic polyamine concentration, Putrescine (Sg (syngenic) mice, 12.5 mg/kg): 92.42 pmoles/mg tissue wet weight
- hepatic polyamine concentration, Spermidine (Sg (syngenic) mice, 12.5 mg/kg): 927.28 pmoles/mg tissue wet weight
- hepatic polyamine concentration, Spermine (Sg (syngenic) mice, 12.5 mg/kg): 708.04 pmoles/mg tissue wet weight
- pancreatic concentration, Bis-α-Methylspermine (Sg (syngenic) mice, 12.5 mg/kg): 259.30 ± 10.04 pmoles/mg tissue wet weight
- pancreatic polyamine concentration, N^8-Acetylspermidine (Sg (syngenic) mice, 12.5 mg/kg): 60.41 pmoles/mg tissue wet weight
- pancreatic polyamine concentration, Putrescine (Sg (syngenic) mice, 12.5 mg/kg): 298.55 ± 75.14 *^+ pmoles/mg tissue wet weight
- pancreatic polyamine concentration, Spermidine (Sg (syngenic) mice, 12.5 mg/kg): 6575.15 ± 614.21 ^+ pmoles/mg tissue wet weight
- pancreatic polyamine concentration, Spermine (Sg (syngenic) mice, 12.5 mg/kg): 981.28 ± 201.81 ^+ pmoles/mg tissue wet weight
- renal concentration, Bis-α-Methylspermine (Sg (syngenic) mice, 12.5 mg/kg): 259.30 pmoles/mg tissue wet weight
- renal polyamine concentration, N^1-Acetylspermidine (Sg (syngenic) mice, 12.5 mg/kg): 33.17 pmoles/mg tissue wet weight
- renal polyamine concentration, N^8-Acetylspermidine (Sg (syngenic) mice, 12.5 mg/kg): 17.62 ± 6.43 pmoles/mg tissue wet weight
- renal polyamine concentration, Putrescine (Sg (syngenic) mice, 12.5 mg/kg): 142.47 pmoles/mg tissue wet weight
- renal polyamine concentration, Spermidine (Sg (syngenic) mice, 12.5 mg/kg): 246.29 pmoles/mg tissue wet weight
- renal polyamine concentration, Spermine (Sg (syngenic) mice, 12.5 mg/kg): 456.65 pmoles/mg tissue wet weight
- hepatic concentration, Bis-α-Methylspermine (Sg (syngenic) mice, 25 mg/kg): 317.22 pmoles/mg tissue wet weight
- hepatic polyamine concentration, N^8-Acetylspermidine (Sg (syngenic) mice, 25 mg/kg): 2.38 pmoles/mg tissue wet weight
- hepatic polyamine concentration, Putrescine (Sg (syngenic) mice, 25 mg/kg): 73.69 pmoles/mg tissue wet weight
- hepatic polyamine concentration, Spermidine (Sg (syngenic) mice, 25 mg/kg): 879.17 pmoles/mg tissue wet weight
- hepatic polyamine concentration, Spermine (Sg (syngenic) mice, 25 mg/kg): 699.86 pmoles/mg tissue wet weight
- pancreatic concentration, Bis-α-Methylspermine (Sg (syngenic) mice, 25 mg/kg): 343.17 ± 35.11 pmoles/mg tissue wet weight
- pancreatic polyamine concentration, Putrescine (Sg (syngenic) mice, 25 mg/kg): 467.21 ± 419.85^++ pmoles/mg tissue wet weight
- pancreatic polyamine concentration, Spermidine (Sg (syngenic) mice, 25 mg/kg): 5733.90 ± 300.80 ^+ pmoles/mg tissue wet weight
- pancreatic polyamine concentration, Spermine (Sg (syngenic) mice, 25 mg/kg): 528.55 ± 241.57 ^+ pmoles/mg tissue wet weight
- renal concentration, Bis-α-Methylspermine (Sg (syngenic) mice, 25 mg/kg): 343.17 pmoles/mg tissue wet weight
- renal polyamine concentration, N^1-Acetylspermidine (Sg (syngenic) mice, 25 mg/kg): 28.39 pmoles/mg tissue wet weight
- renal polyamine concentration, N^8-Acetylspermidine (Sg (syngenic) mice, 25 mg/kg): 17.70 ± 10.63 pmoles/mg tissue wet weight
- renal polyamine concentration, Putrescine (Sg (syngenic) mice, 25 mg/kg): 87.46 pmoles/mg tissue wet weight
- renal polyamine concentration, Spermidine (Sg (syngenic) mice, 25 mg/kg): 257.13 pmoles/mg tissue wet weight
- renal polyamine concentration, Spermine (Sg (syngenic) mice, 25 mg/kg): 459.99 pmoles/mg tissue wet weight
- hepatic concentration, Bis-α-Methylspermine (Sg (syngenic) mice, 37.5 mg/kg): 283.40 pmoles/mg tissue wet weight
- hepatic polyamine concentration, N^1-Acetylspermidine (Sg (syngenic) mice, 37.5 mg/kg): 14.57 pmoles/mg tissue wet weight
- hepatic polyamine concentration, N^8-Acetylspermidine (Sg (syngenic) mice, 37.5 mg/kg): 2.10 pmoles/mg tissue wet weight
- hepatic polyamine concentration, Putrescine (Sg (syngenic) mice, 37.5 mg/kg): 96.27 pmoles/mg tissue wet weight
- hepatic polyamine concentration, Spermidine (Sg (syngenic) mice, 37.5 mg/kg): 772.68 pmoles/mg tissue wet weight
- hepatic polyamine concentration, Spermine (Sg (syngenic) mice, 37.5 mg/kg): 754.59 pmoles/mg tissue wet weight
- pancreatic concentration, Bis-α-Methylspermine (Sg (syngenic) mice, 37.5 mg/kg): 415.40 ± 92.86 pmoles/mg tissue wet weight
- pancreatic polyamine concentration, N^1-Acetylspermidine (Sg (syngenic) mice, 37.5 mg/kg): 123.67 pmoles/mg tissue wet weight
- pancreatic polyamine concentration, N^8-Acetylspermidine (Sg (syngenic) mice, 37.5 mg/kg): 55.34 pmoles/mg tissue wet weight
- pancreatic polyamine concentration, Putrescine (Sg (syngenic) mice, 37.5 mg/kg): 233.06 ± 45.81 *^+ pmoles/mg tissue wet weight
- pancreatic polyamine concentration, Spermidine (Sg (syngenic) mice, 37.5 mg/kg): 5997.63 ± 24.26 ^+ pmoles/mg tissue wet weight
- pancreatic polyamine concentration, Spermine (Sg (syngenic) mice, 37.5 mg/kg): 708.66 ± 179.23 ^++ pmoles/mg tissue wet weight
- renal concentration, Bis-α-Methylspermine (Sg (syngenic) mice, 37.5 mg/kg): 415.40 pmoles/mg tissue wet weight
- renal polyamine concentration, N^1-Acetylspermidine (Sg (syngenic) mice, 37.5 mg/kg): 28.73 pmoles/mg tissue wet weight
- renal polyamine concentration, N^8-Acetylspermidine (Sg (syngenic) mice, 37.5 mg/kg): 15.95 ± 6.92 pmoles/mg tissue wet weight
- renal polyamine concentration, Putrescine (Sg (syngenic) mice, 37.5 mg/kg): 93.95 pmoles/mg tissue wet weight
- renal polyamine concentration, Spermidine (Sg (syngenic) mice, 37.5 mg/kg): 289.83 pmoles/mg tissue wet weight
- renal polyamine concentration, Spermine (Sg (syngenic) mice, 37.5 mg/kg): 513.58 pmoles/mg tissue wet weight
- hepatic concentration, Bis-α-Methylspermine (Sg (syngenic) mice, 50 mg/kg): 379.77 pmoles/mg tissue wet weight
- hepatic polyamine concentration, N^8-Acetylspermidine (Sg (syngenic) mice, 50 mg/kg): 8.72 pmoles/mg tissue wet weight
- hepatic polyamine concentration, Putrescine (Sg (syngenic) mice, 50 mg/kg): 52.40 pmoles/mg tissue wet weight
- hepatic polyamine concentration, Spermidine (Sg (syngenic) mice, 50 mg/kg): 688.44 pmoles/mg tissue wet weight
- hepatic polyamine concentration, Spermine (Sg (syngenic) mice, 50 mg/kg): 687.71 pmoles/mg tissue wet weight
- pancreatic concentration, Bis-α-Methylspermine (Sg (syngenic) mice, 50 mg/kg): 459.26 ± 18.65 pmoles/mg tissue wet weight
- pancreatic polyamine concentration, N^8-Acetylspermidine (Sg (syngenic) mice, 50 mg/kg): 82.23 pmoles/mg tissue wet weight
- pancreatic polyamine concentration, Putrescine (Sg (syngenic) mice, 50 mg/kg): 297.48 ± 123.94^++ pmoles/mg tissue wet weight
- pancreatic polyamine concentration, Spermidine (Sg (syngenic) mice, 50 mg/kg): 5613.06 ± 608.55 ^++ pmoles/mg tissue wet weight
- pancreatic polyamine concentration, Spermine (Sg (syngenic) mice, 50 mg/kg): 561.50 ± 77.66 ^++ pmoles/mg tissue wet weight
- renal concentration, Bis-α-Methylspermine (Sg (syngenic) mice, 50 mg/kg): 459.26 pmoles/mg tissue wet weight
- renal polyamine concentration, N^8-Acetylspermidine (Sg (syngenic) mice, 50 mg/kg): 21.07 ± 5.81 pmoles/mg tissue wet weight
- renal polyamine concentration, Putrescine (Sg (syngenic) mice, 50 mg/kg): 98.32 pmoles/mg tissue wet weight
- renal polyamine concentration, Spermidine (Sg (syngenic) mice, 50 mg/kg): 248.63 pmoles/mg tissue wet weight
- renal polyamine concentration, Spermine (Sg (syngenic) mice, 50 mg/kg): 424.06 pmoles/mg tissue wet weight
- hepatic concentration, Bis-α-Methylspermine (Tg (transgenic) mice, 12.5 mg/kg): 29.55 pmoles/mg tissue wet weight
